Several values for one entry are separate records, joined by “and”; a condition that tells them apart may be missing. Equal entries are not always repeated.
Experiments:
[1] = test system: neuronal firing in hamster SCN slices; assay: NMDA-induced phase advances of neuronal firing in hamster SCN slices maintained in vitro; format: cell-based; conditions: for Phase shift: mean ± S.E.M.; for reversal of the effect of NPY on NMDA-induced phase advances, % of the NMDA alone experiment: antagonist 10 μM with NMDA 100 μM + NPY 2 ng/ml, in vitro
Experimental: Brain slices containing the SCN were taken on a nominally “preparatory day”. During the subsequent night, at 3-3.5 hours before the scheduled onset of light, drugs were administered to the bath. Neuronal recordings were made beginning early the next day, nominally the “experimental day”, and continued until the peak firing rate could be established. A shift in this peak to an earlier point in time is referred to as a “phase advance”.
Phase advances were measured in vitro by sampling spontaneous activity from neurons in a brain slice preparation of the suprachiasmatic nucleus, herein abbreviated SCN, that is known to contain the circadian clock. The term “brain slice preparation”, as used herein, is defined as a cut section of brain that is placed in a plastic chamber and kept fully functioning by providing it with ACSF (artificial cerebrospinal fluid) that has been warmed and infused with oxygen. Recordings of the spontaneous activity of neurons in the SCN brain slice preparation follow a 24-hour pattern of activity that marks the circadian rhythm. Following application of N-methyl-D-aspartate (NMDA), a compound that mediates the phase advances elicited by light in vivo, neurons in the SCN shift their pattern of firing in vitro to reflect a phase advance. Application of NPY blocks the phase advances elicited by NMDA; NPY Y5 antagonists of formula Ia and IIa block these effects of NPY.
Animals and tissue preparation. Male golden hamsters (LVG, Charles River, 40-60 days old) were housed under a light:dark schedule of 14 hours of constant light and 10 hours of constant dark, with food and water available ad libitum. Hamsters were administered an overdose of halothane anesthesia and decapitated during the subjective day. Hypothalamic slices (500 μm) containing the suprachiasmatic nucleus (SCN) were placed in a gas-fluid interface slice chamber (Medical Systems BSC with Haas top), continuously bathed (1 ml/min) in artificial cerebrospinal fluid (ACSF) containing 125.2 mM NaCl, 3.8 mM KCl, 1.2 mM KH2PO4, 1.8 mM CaCl2, 1 mM MgSO4, 24.8 mM NaHCO3, 10 mM glucose. ACSF (pH 7.4) was supplemented with an antibiotic (gentamicin, 50 mg/l) and a fungicide (amphotericin, 2 mg/l) and maintained at 34.5° C. Warm, humidified 95% oxygen:5% carbon dioxide was continuously provided to the slice preparation.
Electrophysiological studies. Extracellular single unit activity of SCN cells was detected with glass micropipette electrodes filled with ACSF, advanced through the slice using a hydraulic microdrive. The signal was further amplified and filtered, and was continuously monitored by an oscilloscope and audio monitor. Firing rate was analyzed using data acquisition software and a customized program for calculation of descriptive statistics. The term “firing rate”, as used herein, is defined as the rate at which the neurons produce an action potential during the period of recording and is indicative of their level of functioning. Firing rates in the range of 1 to 10 Hz are typical for SCN neurons. A number of experiments in each condition were recorded “blind” where the person recording data had no knowledge of the treatment. One slice was recorded from each animal. A total number of 42 slices was recorded.
Data analysis. Data were initially grouped into 1 h bins and an analysis of variance test was used to determine if any bins differed from the others. If the analysis of variance test indicated significant differences, data were smoothed using 1 h running means with a 15-minute lag. The time of the middle of the 1 h bin with the highest mean firing rate after processing by this smoother was taken as the time of peak firing rate for that slice. Phase advances of individual slices were measured relative to the average time of peak firing of control slices. Significant differences between groups (p<0.05) were determined by ANOVA followed by Bonferroni method (for all vs control comparisons). Means are reported±standard error. […]

[2] = test system: hamster wheel running activity; assay: Light-induced phase advances of hamster wheel running activity (in vivo); conditions: for Phase shift: mean ± S.E.M.
From the text: The in vivo experimental design included recording a behavioral overt rhythm such as running-wheel activity and exposing the animals to an amount of light that is known to produce a phase advance in this pattern of activity. The term “running-wheel activity”, as used herein, is defined as physical activity measured as revolutions of a wheel permanently positioned in the animals' cages and rotated as the animals run in them. The onset of such behavior is a well regarded marker of timing in circadian rhythms. Application of NPY through a cannula aimed directly into the SCN blocks the ability of light to produce a phase advance; NPY Y5 antagonists of formula IIa block these effects of NPY. Furthermore, when given in the absence of NPY, NPY Y5 antagonists of formula IIa enhance the ability of light to produce phase advances.
Surgery. For in vivo treatment, hamsters (80-100 g) were deeply anesthetized with nembutal (80 mg/kg, i.p.), administered an analgesic (buprenorphine, 0.05 mg/kg, s.c.) and mounted in a stereotaxic instrument in order to rigidly fix the skull. They were surgically implanted with a 25 gauge stainless steel guide cannula aimed at the SCN. After a week of recovery under LD 14:10 (14 hours of light, 10 hours of dark), animals were individually transferred to cages (48×27×20 cm) equipped with wheels. Wheel running activity was recorded with ClockLab hardware and software (Actimetrics, Evanston, Ill.).
Drugs and routes of administration. Animals were briefly anesthetized in order to minimize the stress induced by restraint during cannula injections with a mixture of oxygen and isoflurane administered by means of a gas anesthesia machine (2.5% isoflurane to induce anesthesia, 1.5% to maintain anesthesia through a nose-mask). NPY (0.2 μL, 234 μM) was dissolved in ACSF and administered through a cannula with a 1 μL Hamilton syringe connected with polyethylene tubing to a 13.1 mm stainless steel injector cannula (30 gauge). NPY Y5 receptor antagonist (0.6 ml, 10 mg/kg) was dissolved in 32% 2-hydroxypropyl-B-cyclodextrin, and injected s.c. 30 minutes before NPY and/or light stimulation. Light pulses (5 min, 150 lux) were delivered individually by placing animals under two white fluorescent tubes (Phillips, model F30T12); the timing of the light pulses was selected to be in the animals' dark period, 3.5 hours before lights would normally come on.
Animals were allowed at least 10 days under LD (14 hours of light, 10 hours of dark) in order to establish a stable rhythm, and then housed under constant dim red light (DRL) provided by a safelight lamp (Coastar, Inc. <1 lux). Two sets of experiments comprising five treatments were delivered in a counterbalanced design: NPY alone, NPY+light; light alone, light+NPY Y5 antagonist, NPY+NPY Y5 antagonist+light. After two treatments (only one of them involving light stimulation), animals were resynchronized to the previous LD cycle for 7-10 days, and then exposed again to dim red light for the second set of treatments.
Data analysis. For in vivo experiments, data were automatically collected and analyzed with Clocklab software bundle (ActiMetrics Software, Evanston, Ill.). Two investigators blind to the treatment analyzed phase advance magnitudes. Statistical analyses were performed by means of ANOVA followed by Student-Newman-Keul's test.
Phase advances (h) were calculated as the difference in the onset of running behavior in animals kept in dim red light relative to those exposed to combination of light and/or drug treatments. Means±S.E.M. for N=7-12. • a. Light alone experiment in which the animals are exposed to light 3 hours before the scheduled beginning of the animals' period of normal light. There is a resulting phase advance of 1.33 hours. • b. Formula IIa+light experiment in which the animals are pretreated with NPY Y5 antagonist of formula IIa and then exposed to light 3 hours before the scheduled beginning of the animals' period of normal light. […]

[3] = NMDA 100 μM + NPY 2 ng/ml + antagonist 10 μM, 60 minute bath application
[4] = substance alone, bath application 3.5 hours before scheduled light, NPY 2 ng/ml, NMDA 100 μM, antagonist 10 μM 60 min, N=2-6
[5] = Formula IIa 10 mg/kg s.c. + NPY via cannula + light
[6] = substance + light pulse, Formula IIa 10 mg/kg s.c. 30 minutes prior to light, NPY 0.2 μL via cannula
[7] = substance alone, no light, Formula IIa 10 mg/kg s.c., NPY 0.2 μL via cannula to SCN, N=7-12

Row | Compound | Phase shift [1, 3] | reversal of the effect of NPY on NMDA-induced phase advances, % of the NMDA alone experiment [1] | reversal of the effect of NPY on NMDA-induced phase advances, % of the NMDA alone experiment ([1]; listed as formula IIa) | effect on the phase of neuronal firing compared to the control experiment ([1]; substance alone) | Phase shift [1, 4] | enhancement of the light-induced phase advance, % of the light alone experiment ([2]; Formula IIa 10 mg/kg s.c. 30 minutes prior to light, absence of NPY) | reversal of the effects of NPY on light-induced phase advances, % of the light alone experiment [2, 5] | reversal of the effects of NPY on light-induced phase advances, % of the light alone experiment ([2]; Formula IIa 10 mg/kg s.c. + NPY via cannula + light, listed as formula IIa) | Phase shift [2, 5] | Phase shift ([2]; Formula IIa 10 mg/kg s.c. + NPY via cannula, no light) | effect on the phase of wheel running activity ([2]; formula IIa 10 mg/kg s.c. + NPY, no light) | Phase shift [2, 6] | effect on the phase of wheel running activity ([2]; substance alone, no light) | Phase shift [2, 7] | reversal of the effect of NPY on NMDA-induced phase advances, % of the NMDA alone experiment ([1]; listed as formula Ia) | blockade of the NMDA-induced phase advance by NPY ([1]; NMDA 100 μM + NPY 2 ng/ml) | Phase shift ([1]; NMDA 100 μM + NPY 2 ng/ml) | blockade of the phase advance compared to the light alone experiment ([2]; NPY via cannula + light)
1 | O=C1OC2(CCN(c3nc4cc(C(F)(F)F)ccc4[nH]3)CC2)c2ccccc21 [Formula IIa] | 2.73 ± 0.16 h | about 95% | 95% | no effect | 0.07 ± 0.07 h | 160% | about 90% | 89% | 1.18 ± 0.27 h | -0.20 ± 0.07 h | no effect | 2.11 ± 0.16 h | no effect | -0.12 ± 0.04 h | – | – | – | –
2 | O=C1OC2(CCN(C(=O)Nc3ccc(C(F)(F)F)cn3)CC2)c2ccccc21 [Formula Ia] | 2.03 ± 0.88 h | about 70% | – | no effect | 0.32 ± 0.35 h | – | – | – | – | – | – | – | – | – | 70% | – | – | –
3 | CN[C@H](CC(=O)O)C(=O)O [NMDA, N-methyl-D-aspartate, reference compound] | – | – | – | – | 2.89 h and 2.89 ± 0.08 h | – | – | – | – | – | – | – | – | – | – | – | – | –
4 | Neuropeptide Y [NPY, reference compound] | – | – | – | no effect | -0.18 ± 0.17 h | – | – | – | – | – | – | -0.03 ± 0.20 h | no effect | -0.04 ± 0.11 h | – | complete blockade | -0.07 ± 0.09 h | complete blockade
